Measured values taken from article PMC4105752 (RNA, 2014).

Target: T1, TbEIF4E5 (TbE5) (Trypanosoma brucei, UniProt Q38B99)
T1 sequence (Q38B99 1-195): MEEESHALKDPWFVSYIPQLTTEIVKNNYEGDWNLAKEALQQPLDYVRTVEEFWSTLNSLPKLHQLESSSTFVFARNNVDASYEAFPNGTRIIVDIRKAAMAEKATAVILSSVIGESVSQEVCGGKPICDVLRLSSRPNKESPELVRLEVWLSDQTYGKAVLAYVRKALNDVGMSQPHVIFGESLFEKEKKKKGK
Assay: intrinsic protein fluorescence quenching titration
Format: binding

| Kd [µM] | Compound | Kas (50 mM HEPES/KOH pH 7.2, 100 mM KCl, 0.5 mM EDTA, 2 mM DTT, 20 °C) |
| --- | --- | --- |
| ~27 | Nc1nc2c(ncn2[C@@H]2O[C@H](COP(=O)(O)OP(=O)(O)OP(=O)(O)O)[C@@H](O)[C@H]2O)c(=O)[nH]1 [GTP] | – |
| 1.54 | C[n+]1cn([C@@H]2O[C@H](COP(=O)(O)OP(=O)(O)OP(=O)(O)O)[C@@H](O)[C@H]2O)c2nc(N)[nH]c(=O)c21 [m^7GTP] | – |
| 8.33 | C[n+]1cn([C@@H]2O[C@H](COP(=O)(O)OP(=O)(O)OP(=O)(O)OC[C@H]3O[C@@H](n4cnc5c(N)ncnc54)[C@H](O)[C@@H]3O)[C@@H](O)[C@H]2O)c2nc(N)[nH]c(=O)c21 [m^7GpppA] | – |
| – | cap 4 | 0.55 ± 0.01 |
